Assays:
[1] = molecular target: T1, human recombinant TDO2 enzyme (Homo sapiens, UniProt P48775); assay: Assay for TDO2 enzymatic activity determination; assay type: biochemical; details: human recombinant TDO2, L-Trp 1 mM, kynurenine absorbance at 480 nm
T1 construct: made in house
Method: To measure the TDO2 activity, the procedure described in Dolusic et al. J. Med. Chem.; 2011, 54, […] was adapted: the reaction mixture contained (final concentrations) potassium phosphate buffer (50 mM, pH 7.5), ascorbic acid (0.25 M), methylene blue (0.125 μM), catalase (40 units/mL, from bovine liver, Sigma), and human recombinant TDO2 enzyme (prepared as described in Dolusic et al. J. Med. Chem.; 2011, 54, 5320-5334; 0.9 μg) without or with the compounds of the present invention at the indicated concentrations (total volume 112.5 μL). The reaction was initiated by the addition of 37.5 μL of L-Trp (final concentration 1 mM) at room temperature. The reaction was conducted at room temperature during one hour and stopped by the addition of 30 μL of 30% (w/v) trichloroacetic acid.
To convert N-formylkynurenine into kynurenine, the reaction mixture was incubated at 65° C. for 30 min. Then 150 μL of the reaction mixture was mixed with 120 μL of 2.5% (w/v) 4-(dimethylamino)-benzaldehyde in acetic acid and incubated for 5 min at room temperature. Kynurenine concentrations were determined by measuring the absorbance at 480 nm. A standard curve was made with pure kynurenine. The TDO activity was measured as described above using ten serial concentrations of the compounds of the present invention. Data were fitted using the Prism™ software (GraphPad Software, Inc.) using standard parameters.

[2] = molecular target: T2, human glioblastoma A172 cells, naturally expressing hTDO2 (Homo sapiens, UniProt P48775); assay: Cellular assay for TDO2 activity, A172 cells; assay type: cell-based; details: overnight incubation, kynurenine in supernatant
T2 construct: human glioblastoma A172 cells, naturally expressing hTDO2; endogenous in cells; host or cells: human glioblastoma A172 cells (ATCC CRL-1620)
T2 sequence (P48775 whole entry): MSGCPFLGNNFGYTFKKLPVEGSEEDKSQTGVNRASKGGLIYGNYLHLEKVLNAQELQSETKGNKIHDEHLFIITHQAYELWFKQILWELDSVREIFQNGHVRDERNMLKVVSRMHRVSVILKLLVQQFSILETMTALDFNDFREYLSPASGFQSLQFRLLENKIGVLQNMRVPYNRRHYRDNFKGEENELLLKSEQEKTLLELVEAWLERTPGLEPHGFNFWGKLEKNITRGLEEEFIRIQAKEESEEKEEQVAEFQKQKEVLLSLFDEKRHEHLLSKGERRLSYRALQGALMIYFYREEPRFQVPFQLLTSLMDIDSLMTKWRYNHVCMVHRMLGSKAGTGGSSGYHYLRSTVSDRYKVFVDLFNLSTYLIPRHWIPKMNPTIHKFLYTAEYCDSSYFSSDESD
Method: The compounds of formula I inhibit the activity of human TDO2 in cells that constitutively express TDO2, such as A172 cells. A172 is a cell line derived from human brain glioblastoma cells. The cells are available from the American Type Culture Collection (ATCC®) as CRL-1620™
The assay (adapted from Pilotte L et al., Proc Natl Acad Sci USA, 2012, 109(7), 2497-502) was performed in 96-well flat bottom plates seeded with human glioblastoma A172 cells, naturally expressing hTDO2 (prepared as described in Tilman et al., Mol Cancer, 2007, 17(6), 80), at a concentration of 1.25×10^4 cells/well in a final volume of 200 μL. To determine TDO, the cells were incubated overnight at 37° C. at 5% CO2 in IMDM (Invitrogen) supplemented with 2% FBS and 2% penicillin/streptomycin in the presence of the compounds of the present invention, at different concentrations.
(§1) The plates were then centrifuged 5 min at 1000 rpm, and 100 μL of the supernatant were collected in a conical plate, 30 uL of TCA 30% were added and a further centrifugated at 3000×g for 10 minutes. 100 μL of the supernatant were collected in a flat bottomed plate and 100 μL of 2% (w/v) 4-(dimethylamino)-benzaldehyde in acetic acid and incubated for 5 min at room temperature. Kynurenine concentrations were determined by measuring the absorbance at 480 nm. A standard curve was made with pure kynurenine. The TDO activity was measured as described above using ten serial concentrations of the compounds of the present invention. Data were fitted using the Prism™ software (GraphPad Software, Inc.) using standard parameters.

[3] = molecular target: T3, murine mastocytoma P815 cells overexpressing hTDO2 (Homo sapiens, UniProt P48775); assay: Cellular assay for TDO2 activity, hTDO2-overexpressing P815 cells; assay type: cell-based; details: P815 cells overexpressing hTDO2, overnight incubation, kynurenine in supernatant
T3 construct: expressed in transfected cells; host or cells: murine mastocytoma P815 cells
T3 sequence (P48775 whole entry): as above
Method: The assay (adapted from Pilotte L et al., Proc Natl Acad Sci USA, 2012, 109(7), 2497-502) was performed in 96-well flat bottom plates seeded with murine mastocytoma P815 cells overexpressing hTDO2 (prepared as described in Pilotte et al., PNAS, 2012, 109(7), 2497-2502), at a concentration of 5×10^4 cells/well in a final volume of 200 μL. To determine TDO or IDO activity, the cells were incubated overnight at 37° C. at 5% CO2 in IMDM (Invitrogen) supplemented with 2% FBS and 2% penicillin/streptomycin in the presence of the compounds of the present invention, at different concentrations. The cells may be obtained from the American Type Cuylture Collecion [ATCC® TIB-64™ or commercially, e.g., from Sigma-Aldrich or Life Technologies.]
as §1

T1 sequence (P48775 whole entry): as above

| IC50 [1] [nM] | IC50 [2] [nM] | IC50 [3] [nM] | SMILES |
| --- | --- | --- | --- |
| 645 | 147 |  | NC(=O)Cn1ncc2cc(-c3c[nH]c4cc(F)ccc34)ccc21 [Compound 9, 2-(5-(6-fluoro-1H-indol-3-yl)-1H-indazol-1-yl)acetamide] |
| 709 | 517 |  | NC(=O)CCn1ncc2cc(-c3c[nH]c4cc(F)ccc34)ccc21 [Compound 12, 3-(5-(6-fluoro-1H-indol-3-yl)-1H-indazol-1-yl)propanamide] |
| 421 | 169 |  | NC(=O)Cn1cc2cc(-c3c[nH]c4cc(F)ccc34)ccc2n1 [Compound 20, 2-(5-(6-fluoro-1H-indol-3-yl)-2H-indazol-2-yl)acetamide] |
| 2670 |  |  | CC(=O)N1CCC(Cn2cc3cc(-c4c[nH]c5cc(F)ccc45)ccc3n2)CC1 [Compound 21, 1-(4-((5-(6-fluoro-1H-indol-3-yl)-2H-indazol-2-yl)methyl)piperidin-1-yl)ethanone] |
| 539 | 176 |  | NC(=O)CCn1cc2cc(-c3c[nH]c4cc(F)ccc34)ccc2n1 [Compound 22, 3-(5-(6-fluoro-1H-indol-3-yl)-2H-indazol-2-yl)propanamide] |
| 322 |  |  | Fc1ccc2c(-c3ccc4nn(C5CCNCC5)cc4c3)c[nH]c2c1 [Compound 23, 5-(6-fluoro-1H-indol-3-yl)-2-(piperidin-4-yl)-2H-indazole] |
| 924 |  |  | CC(=O)N1CCC(n2cc3cc(-c4c[nH]c5cc(F)ccc45)ccc3n2)CC1 [Compound 24, 1-(4-(5-(6-fluoro-1H-indol-3-yl)-2H-indazol-2-yl)piperidin-1-yl)ethanone] |
| 188 |  |  | Fc1ccc2c(-c3ccc4[nH]cnc4c3)c[nH]c2c1 [Compound 25, 5-(6-fluoro-1H-indol-3-yl)-1H-benzo[d]imidazole] |
|  |  | 678 | NCc1nc2ccc(-c3c[nH]c4cc(F)ccc34)cc2[nH]1 [Compound 27, (6-(6-fluoro-1H-indol-3-yl)-1H-benzo[d]imidazol-2-yl)methanamine] |
|  |  | 1450 | CN(C)Cc1nc2ccc(-c3c[nH]c4cc(F)ccc34)cc2[nH]1 [Compound 28, 1-(6-(6-fluoro-1H-indol-3-yl)-1H-benzo[d]imidazol-2-yl)-N,N-dimethylmethanamine] |
|  |  | 896 | CC(=O)NCc1nc2ccc(-c3c[nH]c4cc(F)ccc34)cc2[nH]1 [Compound 30, N-((6-(6-fluoro-1H-indol-3-yl)-1H-benzo[d]imidazol-2-yl)methyl)acetamide] |
|  |  | 2300 | NCC(=O)NCc1nc2ccc(-c3c[nH]c4cc(F)ccc34)cc2[nH]1 [Compound 31, 2-amino-N-((6-(6-fluoro-1H-indol-3-yl)-1H-benzo[d]imidazol-2-yl)methyl)acetamide] |
|  |  | 460 | CS(=O)(=O)NCc1nc2ccc(-c3c[nH]c4cc(F)ccc34)cc2[nH]1 [Compound 32, N-((6-(6-fluoro-1H-indol-3-yl)-1H-benzo[d]imidazol-2-yl)methyl)methanesulfonamide] |
|  |  | 635 | CN1CCN(Cc2nc3ccc(-c4c[nH]c5cc(F)ccc45)cc3[nH]2)CC1 [Compound 33, 6-(6-fluoro-1H-indol-3-yl)-2-((4-methylpiperazin-1-yl)methyl)-1H-benzo[d]imidazole] |
| 1330 |  |  | NC(=O)CCc1nc2cc(-c3c[nH]c4cc(F)ccc34)ccc2[nH]1 [Compound 46, 3-(5-(6-fluoro-1H-indol-3-yl)-1H-benzo[d]imidazol-2-yl)propanamide] |
| 2390 | 589 |  | CS(=O)(=O)N1CCC(c2nc3ccc(-c4c[nH]c5cc(F)ccc45)cc3o2)CC1 [Compound 96, 6-(6-fluoro-1H-indol-3-yl)-2-(1-(methylsulfonyl)piperidin-4-yl)benzo[d]oxazole] |
| 716 | 284 |  | O=C1Cc2cc(-c3c[nH]c4cc(F)ccc34)ccc2N1 [Compound 97, 5-(6-fluoro-1H-indol-3-yl)indolin-2-one] |
| 489 | 293 |  | Nc1nc2ccc(-c3c[nH]c4cc(F)ccc34)cc2o1 [Compound 98, 6-(6-fluoro-1H-indol-3-yl)benzo[d]oxazol-2-amine] |
| 1460 | 345 |  | CN(C)CCS(=O)(=O)NCc1nc2ccc(-c3c[nH]c4cc(F)ccc34)cc2o1 [Compound 100, 2-(dimethylamino)-N-((6-(6-fluoro-1H-indol-3-yl)benzo[d]oxazol-2-yl)methyl)ethanesulfonamide] |
| 1380 | 153 |  | CS(=O)(=O)CCc1nc2ccc(-c3c[nH]c4cc(F)ccc34)cc2o1 [Compound 101, 6-(6-fluoro-1H-indol-3-yl)-2-(2-(methylsulfonyl)ethyl)benzo[d]oxazole] |
| 835 | 261 |  | NC(=O)NCc1nc2ccc(-c3c[nH]c4cc(F)ccc34)cc2o1 [Compound 102, 1-((6-(6-fluoro-1H-indol-3-yl)benzo[d]oxazol-2-yl)methyl)urea] |
| 913 | 223 |  | CN1CCN(CCc2nc3ccc(-c4c[nH]c5cc(F)ccc45)cc3o2)CC1 [Compound 105, 6-(6-fluoro-1H-indol-3-yl)-2-(2-(4-methylpiperazin-1-yl)ethyl)benzo[d]oxazole] |
| 814 | 326 |  | O=S(=O)(CCO)NCc1nc2ccc(-c3c[nH]c4cc(F)ccc34)cc2o1 [Compound 106, N-((6-(6-fluoro-1H-indol-3-yl)benzo[d]oxazol-2-yl)methyl)-2-hydroxyethanesulfonamide] |
| 2800 | 677 |  | O=S(=O)(CCN1CCOCC1)NCc1nc2ccc(-c3c[nH]c4cc(F)ccc34)cc2o1 [Compound 107, N-((6-(6-fluoro-1H-indol-3-yl)benzo[d]oxazol-2-yl)methyl)-2-morpholinoethanesulfonamide] |
| 2090 | 344 |  | CN1CCN(CCS(=O)(=O)NCc2nc3ccc(-c4c[nH]c5cc(F)ccc45)cc3o2)CC1 [Compound 122, N-((6-(6-fluoro-1H-indol-3-yl)benzo[d]oxazol-2-yl)methyl)-2-(4-methylpiperazin-1-yl)ethanesulfonamide] |
| 1360 | 498 |  | O=S(=O)(CCN1CCNCC1)NCc1nc2ccc(-c3c[nH]c4cc(F)ccc34)cc2o1 [Compound 123, N-((6-(6-fluoro-1H-indol-3-yl)benzo[d]oxazol-2-yl)methyl)-2-(piperazin-1-yl)ethanesulfonamide] |
| 1210 | 334 |  | O=S(=O)(CCN1CCCC1)NCc1nc2ccc(-c3c[nH]c4cc(F)ccc34)cc2o1 [Compound 124, N-((6-(6-fluoro-1H-indol-3-yl)benzo[d]oxazol-2-yl)methyl)-2-(pyrrolidin-1-yl)ethanesulfonamide] |
| 6070 | 540 |  | CS(=O)(=O)NCc1nc2ccc(-c3c[nH]c4ccc(F)cc34)cc2o1 [Compound 128, N-((6-(5-fluoro-1H-indol-3-yl)benzo[d]oxazol-2-yl)methyl)methanesulfonamide] |
| 2420 | 83 |  | O=C1NS(=O)(=O)c2ccc(-c3c[nH]c4cc(F)ccc34)cc21 [Compound 130, 5-(6-fluoro-1H-indol-3-yl)benzo[d]isothiazol-3(2H)-one 1,1-dioxide] |
